{"source": "patent US9464066B2", "about": "“Deuterated compounds useful for treating neurodegenerative diseases” (PharmatrophiX, Inc., priority 2009, dated 2016)", "system": "hippocampal neurons", "test": "Measurement of activity relative to BDNF: prevention of degeneration of hippocampal neurons", "type": "cell-based", "details": "hippocampal neurons from embryological day 16 mice, assessed 48 hours following cell seeding; BDNF maximum defined as 100%; baseline (CM) approximately 40%", "method": "Compounds of the present application are tested for their ability to prevent the degeneration of hippocampal neurons as described in Massa et al J Neurosci. (2006) 26(20):5288-300. In brief, hippocampal neurons are isolated from embryological day 16 mice and seeded in 96-well tissue culture plates under conditions in which they degenerated in the absence of neurotrophin receptor ligands. Neuronal degeneration is assessed using morphological criteria 48 hours following cell seeding. The neurotrophins brain-derived neurotrophic factor (BDNF) and nerve growth factor (NGF) serve as positive controls. The maximum cell death preventing activity of BDNF is defined as 100% neurotrophic activity. The efficacy of NGF is 80% of that of BDNF. The neurotrophic activity of the test compounds at each applied concentration is quantitated in terms of a percentage of the maximum BDNF-supported survival level. In the presence of culture medium (CM) and the absence of BDNF or compounds, survival is approximately 40% of the BDNF maximum effect and this is regarded as baseline survival. For each compound, dose-response curves are generated and the EC50 and maximum survival percentage are derived.", "data": [{"substance": "NGF: neurotrophin nerve growth factor, serves as positive control in the hippocampal neuron survival assay", "values": [{"measurement": "efficacy (neurotrophic activity as percentage of the maximum BDNF-supported survival)", "value": 80, "unit": "%"}]}]}
